The text below walks through data of US8653238B2, “Compositions and methods for transport of molecules with enhanced release properties across biological barriers” (The Board of Trustees of the Leland Stanford Junior …, priority 2006, dated 2014).

Molecules are shown by their SMILES. Values joined by “and” are separate entries in the source; they are usually repeats but may differ in a detail not shown here. Equal values may be shown once. Non-standard residues stand in square brackets, D forms with d. Residues, ends and D or L forms follow the SMILES beside them. *: point of attachment. Paclitaxel(2'-OCO(CH2)3S) = CC(=O)O[C@H]1C(=O)[C@@]2(C)[C@H]([C@H](OC(=O)c3ccccc3)[C@]3(O)C[C@H](OC(=O)[C@H](OC(=O)CCCS*)[C@@H](NC(=O)c4ccccc4)c4ccccc4)C(C)=C1C3(C)C)[C@]1(OC(C)=O)CO[C@@H]1C[C@@H]2O; X1 = O=C(OCCCS*)Oc1ccc2nc(C3=N[C@@H](C(=O)O)CS3)sc2c1

A short description of one series: physchem. As to conditions: buffer, pH 7.4.
The next series deals with OVCA429TP. Description: cells. The method, then:
(§1) FIG. 12 depicts an assay for GI50 (nM) of 429 Ovarian Cancer Lines, 20 min pulse with indicated compounds. The cells were pulsed for 20 min, washed (×2) and incubated for 72 hr in fresh media. For each compound, three bars are depicted, for 429 cells, 429 T cells, and 429 TP cells (from left to right).
(§2) The cells were pulsed with conjugates administered in PBS (pH=7.4) and Taxol (administered in DMSO) for 20 min. Then the solution was removed, the cells were washed twice and incubated in fresh media for 72 hr. The presence of live cells were measured based on the standard MTS assay.

The test system of another series is OVCA429. The series is described as follows: cells. As to the method:
as §1, §2

Another series deals with OVCA429T. Description: cells. The method, then: as §1, §2
For a further series, the system named is FVB-luc+ mice skin. The series is described as follows: Bioluminescence after topical application to skin of luciferase transgenic mice (Example 7). In kind it is in vivo.
Series [1] concerns transgenic (FVB-luc+) mice. The series is described as follows: Bioluminescence after intradermal injection into luciferase transgenic mice. Type of series: in vivo.
Series [2] relates to PC3M-luc prostate cancer cell line stably transfected with luciferase. Description: Cellular assay for luciferin release from conjugates (Example 6). In kind it is cell-based. The method, then:
The PC3M-luc prostate tumor cell line (Jenkins et al., Clin. Exp. Metastasis 20:733 (2003)), was plated at 60,000 cells per well in 96 well, flat bottomed plates twelve hours prior to the assay. […] The cells were washed to remove extracellular luciferin or conjugate, resuspended with the appropriate buffer, and the resultant luminescence measured using a charged coupled device camera and Living Image software (IVIS200, Xenogen Corp., Alameda, Calif.) (see Cao et al., Proc. Natl. Acad. Sci. U.S.A. 101:221 (2004)).

Setting [3] is: 429TP cells (Taxol resistant, unknown mechanism), 20 min pulse, 72 hr.
The mark [4] stands for this setting: 429 cells, 20 min pulse, washed ×2, 72 hr in fresh media, conjugates in PBS pH 7.4, taxol in DMSO.
Where [5] appears, read: 429T cells (Taxol resistant, PGP overexpression), 20 min pulse, 72 hr.

Source text for FVB-luc+ mice skin: For imaging assays to assess skin transport, hair was removed from the animals by clipping with a large hair clipper on the right flank. Subsequently, Nair® (NAIR is a registered trademark of Church & Dwight Co., Inc., Princeton N.J., USA for a depilatory cream) was applied for 90 seconds, wiped off, and the animals were washed well with wet paper towels and dried. Five days were allowed for stratum corneum regrowth before the mice were used for imaging.
Formulations for topical application of conjugates were prepared as follows. […] Luminescence was observed over approximately 60 minutes.
In vivo bioluminescence imaging was carried out as follows. Animals were imaged in a dark chamber using a cooled CCD camera (IVIS100 Xenongen Corp.) as previously described 45 and the data were analyzed using LivingImage software (Xenogen Corp.). Data are expressed as photons/ster radian/sec for each region of interest such that the data are not dependent on camera settings, chamber geometry or integration time.
The most reproducible method to evaluate the relative performance of transporters and linkers was to apply a single drop of a solution of each conjugate to the flank of anesthetized FVB-luc+ mice. The drop was allowed to remain in contact with the skin for the duration of the assay during which luminescence from the animal was monitored. […]
Procedure for physchem: The stabilities of the conjugates were assayed by measuring their decomposition when incubated in HEPES buffered saline (HBS, pH 7.4) at 37° C. using analytical HPLC. […] At appropriate time points 20 μl of the solutions were removed and analyzed by reverse phase HPLC. The percent decomposition was calculated from the integrated peak areas of the conjugate, the internal standard, and the various decomposition products.

In general, half-life refers to the time needed for the level to fall by half in the phase considered. Low readings indicate fast loss, high ones slow loss. Regarding `CC(=O)N[C@H](CSSCCOC(=O)Oc1ccc2nc(C3=N[C@@H](C(=O)O)CS3)sc2c1)C(=O)N[C@H](CCCNC(=N)N)C(=O)N[C@H](CCCNC(=N)N)C(=O)N[C@H](CCCNC(=N)N)C(=O)N[C@H](CCCNC(=N)N)C(=O)N[C@H](CCCNC(=N)N)C(=O)N[C@H](CCCNC(=N)N)C(=O)N[C@H](CCCNC(=N)N)C(=O)N[C@H](CCCNC(=N)N)C(N)=O` [5a], in the series “physchem”, the half-life at 0.8 mg/ml is 3 h.

The GI50 is the concentration that inhibits growth by half. Higher therefore signals lower sensitivity of the cells. On to `CC(=O)O[C@H]1C(=O)[C@@]2(C)[C@H]([C@H](OC(=O)c3ccccc3)[C@]3(O)C[C@H](OC(=O)[C@H](O)[C@@H](NC(=O)c4ccccc4)c4ccccc4)C(C)=C1C3(C)C)[C@]1(OC(C)=O)CO[C@@H]1C[C@@H]2O` [taxol, paclitaxel, reference compound], for which the GI50 in the series with OVCA429TP (Homo sapiens) was determined as 8480 nM; in the series with OVCA429 (Homo sapiens, OVCA429, pH 7.4), 147 nM; in the series on OVCA429T (Homo sapiens), 15800 nM.

In the case of `CC(=O)N[C@H](CSSCCCC(=O)O[C@@H](C(=O)O[C@H]1C[C@@]2(O)[C@@H](OC(=O)c3ccccc3)[C@@H]3[C@]4(OC(C)=O)CO[C@@H]4C[C@H](O)[C@@]3(C)C(=O)[C@H](OC(C)=O)C(=C1C)C2(C)C)[C@@H](NC(=O)c1ccccc1)c1ccccc1)C(=O)N[C@H](CCCNC(=N)N)C(=O)N[C@H](CCCNC(=N)N)C(=O)N[C@H](CCCNC(=N)N)C(=O)N[C@H](CCCNC(=N)N)C(=O)N[C@H](CCCNC(=N)N)C(=O)N[C@H](CCCNC(=N)N)C(=O)N[C@H](CCCNC(=N)N)C(=O)N[C@H](CCCNC(=N)N)C(N)=O` [Compound 62, Taxol C2′ Octaarginine Conjugate 62] (Ac-[dC](Paclitaxel(2'-OCO(CH2)3S))[dR][dR][dR][dR][dR][dR][dR][dR]-NH2), the GI50 in the series on OVCA429TP (setting [3]) came to 101 nM; with OVCA429 (setting [4]), 12 nM; with OVCA429T (setting [5]), 420 nM.

Regarding `CC(=O)N[C@H](CSSCCCOC(=O)Oc1ccc2nc(C3=N[C@@H](C(=O)O)CS3)sc2c1)C(=O)N[C@H](CCCNC(=N)N)C(=O)N[C@H](CCCNC(=N)N)C(=O)N[C@H](CCCNC(=N)N)C(=O)N[C@H](CCCNC(=N)N)C(=O)N[C@H](CCCNC(=N)N)C(=O)N[C@H](CCCNC(=N)N)C(=O)N[C@H](CCCNC(=N)N)C(=O)N[C@H](CCCNC(=N)N)C(N)=O` [5b] (Ac-[dC](X1)[dR][dR][dR][dR][dR][dR][dR][dR]-NH2), the “amount of luciferin released in one hour” value in the series with FVB-luc+ mice skin (15 μL of 5 mM in 75% PEG 400/25% 200 mM NaOAc pH 6.0) is 3.62e-12 mol. Besides, the “cumulative intradermal concentration of luciferin over one hour” value with FVB-luc+ mice skin (15 μL of 5 mM in 75% PEG 400/25% 200 mM NaOAc pH 6.0, skin thickness 0.69 mm) was 47 nM. Also, the “time over which signal increases after injection” value in series [1] (intradermal injection) stood at 20 min. Besides, in series [1] (intradermal injection of 100 uL of 200 nM in HBS pH 7.4, two different animals), the “area under the curve of bioluminescence” value is 2.54 ×10^10 photons and 2.01 ×10^10 photons. Besides, the “theoretical amount of luciferin in the injected sample accounted for” value in series [1] (intradermal injection, photons emitted in 60 minutes × 400 molecules per photon) is on record as “Approximately 80%”. The “time for luminescent signal to reach background” value in series [2] (1 minute pulse, HBS pH 7.4) is given as “approximately 1000 seconds”. The same compound showed a half-life at 0.8 mg/ml in “physchem” of 11 h.

Regarding `O=C(O)[C@H]1CSC(c2nc3ccc(O)cc3s2)=N1` [luciferin, reference compound], the “area under the curve relative to 200 nM dose” value in series [1] (mouse, in vivo) was determined as 10.24%. For the same compound, the “area under the curve of bioluminescence” value in series [1] (mouse, in vivo, pH 7.4) was 3.02×10^10 photons and 3.11×10^9 photons. In series [2] (K+HBS versus HBS, 25 μM luciferin), the “change of luminescence in K+HBS” value was “increased slightly”.

As for `CC(=O)N[C@H](CSSCCCC(=O)O[C@H]1C[C@H]2OC[C@@]2(OC(C)=O)[C@H]2[C@H](OC(=O)c3ccccc3)[C@]3(O)C[C@H](OC(=O)[C@H](O)[C@@H](NC(=O)c4ccccc4)c4ccccc4)C(C)=C([C@@H](OC(C)=O)C(=O)[C@]12C)C3(C)C)C(=O)N[C@H](CCCNC(=N)N)C(=O)N[C@H](CCCNC(=N)N)C(=O)N[C@H](CCCNC(=N)N)C(=O)N[C@H](CCCNC(=N)N)C(=O)N[C@H](CCCNC(=N)N)C(=O)N[C@H](CCCNC(=N)N)C(=O)N[C@H](CCCNC(=N)N)C(=O)N[C@H](CCCNC(=N)N)C(N)=O` [Compound 67, Taxol C7 Octaarginine Conjugate 67], the results for the GI50 in the series with OVCA429TP (setting [3]), in the series with OVCA429 (setting [4]) and with OVCA429T (setting [5]) were 93 nM, 125 nM and 225 nM, respectively.
